In patent publication US20220096516A1, “OLIGONUCLEOTIDE MOLECULE AND APPLICATION THEREOF IN TUMOR THERAPY” (Ractigen Therapeutics, priority 2019, published 2022):

How the values were obtained:
U87MG transplanted tumor = U87MG transplanted tumor growth in nude mice; design: species or system BALB/c nude mice; conditions: U87MG xenograft, day 13; saRNA (in vivo-jetPEI) 1 mg/kg intratumor days 1, 4, 7, 10; regorafenib 3 mg/kg intragastric daily day 1-12; control 406%
Protocol: To prepare the saRNA formulation, in vivo-jetPEI (201-10G, Polyplus-transfection, France) was adopted as an saRNA delivery system. The preparation process is briefly described as follows: an saRNA was first diluted in a 10% glucose solution to give a solution A; a required amount of in vivo-jetPEI was diluted in 10% glucose solution to give a solution B; then, equal volumes of the solution A and the solution B were mixed (nitrogen-to-phosphorus ratio: 8; final concentration of glucose: 5%). After mixing the mixture was let to stand under room temperature for 15 minutes for later use.
The glioma cell line U87MG were grown to the logarithmic phase, counted, then subcutaneously inoculated at a concentration of 9×10^7 cells/mL into the right armpit of BALB/c nude mice at 0.1 mL per mouse. […] After the initial administration, the long diameter and short diameter of each tumor were measured with a vernier caliper every two days. The tumor volume was calculated according to the formula V=(l×w^2)/2, wherein 1 represents the longest diameter of the tumor and w represents the diameter parallel to the surface of the tumor and perpendicular to the long diameter. A tumor growth curve and size and morphology of the tumor anatomy were recorded during the administration.

HepG2 transplanted tumor = HepG2 transplanted tumor growth in nude mice; design: species or system BALB/c nude mice; conditions: HepG2 xenograft, day 13; saRNA (in vivo-jetPEI) 1 mg/kg intratumor days 1, 4, 7, 10; regorafenib 3 mg/kg intragastric daily day 1-12; vehicle 118%
Protocol: To prepare the saRNA formulation, the in vivo-jetPEI (201-10G, Polyplus-transfection, France) was adopted as an saRNA delivery system. The preparation process is briefly described as follows. An saRNA was first diluted in 10% glucose solution to obtain a solution A. According to the instructions of the manufacturer, a required amount of in vivo-jetPEI was diluted in 10% glucose solution to obtain a solution B. Equal volumes of the solution A and the solution B were mixed (nitrogen-to-phosphorus ratio: 8; final concentration of glucose: 5%). After mixing, the mixture was let to stand at room temperature for 15 minutes for later use.
HepG2 cells in the logarithmic growth phase were obtained and counted, and then the cell suspension was regulated to 5×10^7 cells/mL and subcutaneously inoculated into the right armpit of BALB/c nude mice at a volume of 0.1 mL per mouse. […] Starting from the initial administration, the long diameter and the short diameter of each tumor were measured with a vernier caliper every two days. The tumor volume was calculated according to the formula V=(l×w^2)/2, wherein 1 represents the longest diameter of the tumor and w represents the diameter parallel to the surface of the tumor and perpendicular to the long diameter. A tumor growth curve and size and morphology of the tumor after anatomy were recorded during the administration.

`CNC(=O)c1cc(Oc2ccc(NC(=O)Nc3ccc(Cl)c(C(F)(F)F)c3)c(F)c2)ccn1` [regorafenib, Regorafenib, reference compound] was tested, and the “tumor volume increase compared with that at the beginning of treatment” value (U87MG transplanted tumor) was 251% and the “tumor volume increase compared with that at the beginning of treatment” value (HepG2 transplanted tumor) was 70%.
